{"source": "paper PMC2074590", "about": "(British Journal of Cancer, 1996)", "origin": "cited, not measured here", "key": {"[1]": {"system": "Ki67, ER, PgR, pS2 in primary breast cancer", "settings": "similar clinical experiments; ref Howell et al., 1988; Roberston et al., 1991; Clarke et al., 1993; Nicholson et al., 1994; cited from earlier work"}, "advanced breast cancer": {"system": "advanced breast cancer", "settings": "ref Cole et al., 1971, Patterson et al., 1981; cited from earlier work"}, "[2]": {"settings": "ref Willemse et al., 1990; cited from earlier work"}, "breast cancer cells": {"system": "breast cancer cells", "design": "method as in Wakeling and Bowler, 1987, 1988", "settings": "ref Wakeling and Bowler, 1987, 1988; cited from earlier work"}}}
{"compound": "CC/C(=C(\\c1ccccc1)c1ccc(OCCN(C)C)cc1)c1ccccc1", "note": "[tamoxifen, reference compound]", "values": [{"measurement": "ER expression", "setting": "[1]", "value": "no change in ER expression"}, {"measurement": "PgR expression", "setting": "[1]", "value": "slightly increased PgR expression"}, {"measurement": "Median duration of remission", "setting": "advanced breast cancer", "value": "about 18 months"}]}
{"compound": "CC(=O)O[C@]1(C(C)=O)CC[C@H]2[C@@H]3C=C(C)C4=CC(=O)CC[C@]4(C)[C@H]3CC[C@@]21C", "note": "[megestrol acetate]", "values": [{"measurement": "Patients with weight gain of > 5% of body weight", "setting": "[2]", "value": 25, "unit": "%"}]}
{"compound": "CCCCN(C)C(=O)CCCCCCCCCC[C@@H]1Cc2cc(O)ccc2[C@H]2CC[C@]3(C)[C@@H](O)CC[C@H]3[C@H]12", "note": "[ICI 164384, reference compound]", "values": [{"measurement": "Potency as inhibitor of cell growth in vitro relative to tamoxifen", "setting": "breast cancer cells", "value": "up to two orders of magnitude more potent than tamoxifen"}]}
